Assay results reported in patent publication US9174998B2, “(6S,9aS)-N-benzyl-6-[(4-hydroxyphenyl)methyl]-4,7-dioxo-8-({6-[3-(piperazin-1-yl)azetidin-1-yl]pyridin-2-yl}methyl)-2-(prop-2-en-1-yl)-octahydro-1H-pyrazino[2,1-c][1,2,4]triazine-1-carboxamide compound” (Eisai R&D Management Co., Ltd., priority 2013, dated 2015).
In brackets after ≈: the same amount, converted by molar mass. Like-named read-outs stand apart in the source and are kept apart here.

Tests used:
[1] = test system: Wnt signal; assay: Detection of Wnt signal (TOPglow luciferase reporter, LiCl-stimulated); assay type: cell-based; conditions: Homo sapiens; HEK293 clone carrying pNeo-TOP reporter; LiCl stimulation; luciferase luminescence; read-out: Test Example 1 IC50 (concentration required for inhibiting the Wnt signal activity by 50%)
Protocol: pcDNA3.1(+) (invitrogen) was cleaved with restriction enzymes BglII and NotI, and an adapter BEHKS having a sequence shown below (containing restriction enzyme sites BglII, EcoRI, HindIII, KpnI, SacI and NotI) was inserted thereinto, thereby producing a plasmid pNeo-HKS.
Subsequently, a fragment having a length of about 2700 bp (containing a Wnt-responsive sequence and a luciferase gene), which was prepared by cleaving from a TOPglow plasmid contained in a TOPglow/FOPglow TCF Reporter Kit (upstate Catalog#17-366) with restriction enzymes HindIII and KpnI, was inserted between HindIII and KpnI in pNeo-HKS, thereby producing a plasmid pNeo-TOP. The plasmid pNeo-TOP was introduced into human fetus-derived renal cell strain HEK293, then a compound was selected using G418, and then a cell clone strain was established by a limiting dilution method. The cell clone strain was subjected to a Wnt signal detection test.
The cell clone strain was subcultured in a D-MEM glucose-rich culture medium (Wako Pure Chemical Industries, Ltd.) containing 10% FBS, and cells in a growth phase were used in the test. Cells were collected using trypsin-EDTA, the number of the cells was counted, and then the cells were suspended in a D-MEM glucose-rich culture medium containing 10% FBS so that the number of cells became 2×10^5 cells/mL. The cell suspension was added to a 96-well cell culture plate (Greiner Bio-One Co., Ltd., product number: 655083) in an amount of 0.1 mL/well and then cultured overnight in a 5% CO2 incubator (37° C.). After the culturing, a substance to be tested, which was dissolved in DMSO, was diluted with a D-MEM glucose-rich culture medium containing 10% of FBS and 80 mM of LiCl to produce a sample solution. The sample solution (0.1 mL) was added to each well and then cultured in a 5% CO2 incubator (37° C.) […]. Six hours after the addition of the sample solution, a supernatant was removed from each well, and then 50 μL of Bright-Glo™ Luciferase substrate (Promega, product number: E2620) was added thereto. The plate was put on a plate mixer for several seconds, and then the emission of light from each well was measured using a EnVision™ Multilabel plate reader (PerkinElmer Co., Ltd.). The Wnt signal activation rate (%) of each well was determined, and a concentration (IC50) which is required for inhibiting the Wnt signal activity of a substance of interest by 50% was calculated, wherein the luminosity of a well to which a sample solution was not added and LiCl was added was defined as a 100% Wnt signal activity and the luminosity of a well to which either of a sample solution or LiCl was not added was defined as a 0% Wnt signal activity.

[2] = Evaluation of metabolic stability; assay type: in vitro ADME, human; conditions: 0.2 mg/mL HLM, 0.1 μM test substance, 15 minutes at 37° C., with vs without NADPH production
Protocol: A test substance was dissolved in DMSO so that the concentration of the resultant solution became 20 mM, and the solution was diluted with DMSO so that the concentration of the resultant solution became 1 mM. The metabolic stability of the test substance was evaluated using a human liver microsome (HLM) in which human liver was pooled. An assay buffer solution contained 0.2 mg/mL of HLM, a 0.1 M of phosphate potassium buffer solution (pH 7.4), 0.1 mM of EDTA, 0.33 mM of NADP+, 8 mM of glucose-6-phosphate, 0.1 U/mL of glucose-6-phosphate dehydrogenase, 6 mM of MgCl2, 0.1 μM of a test substance (final concentration in DMSO: 0.01%) in 0.15 mL of the final incubation volume. Fifteen minutes after the initiation of the reaction at 37° C., 0.15 mL of a acetonitrile/methanol mixed solution (7:3, by volume) was added to the solution to terminate the reaction. After centrifugation, the resultant supernatant was analyzed by LC-MSMS, peak areas were compared under the presence or absence of the production of NADPH, and the residual ratio of the test substance was calculated.

[3] = Evaluation of solubility (DMSO stock into PBS, HPLC-UV); assay type: physicochemical; conditions: Dulbecco's phosphate-buffered saline pH 7, room temperature, about 15 minutes shaking, values greater than 200 μM regarded as 200 μM, read-out: Test Example 3 solubility
Protocol: To 0.25 mL of a test solution a mentioned below was added 2.5 μL of a DMSO solution having a compound concentration of 20 mM. The resultant solution was shaken at room temperature for about 15 minutes (the conditions for the shaking are mentioned below). Subsequently, a supernatant was collected by a suction filtration under a reduced pressure. A DMSO solution having a compound concentration of 200 μM was used as a standard solution, and the concentration of a compound in a filtrate which was quantified by a HPLC-UV method was employed as a solubility (rounded off to the whole number). In this evaluation, since a value 200 μM became the upper limit operationally, all of quantification values greater than 200 μM were regarded as 200 μM.
Test solution: GIBCO (registered trade name) Dulbecco's phosphate-buffered saline (pH 7, Life Technologies Corporation)
Conditions for shaking: a microplate shaker N-704 (Nissinrika Corporation), speed 6

[4] = PAMPA test (parallel artificial membrane permeability assay); assay type: in vitro ADME; conditions: phosphate buffer pH 6.8, about 200 μM, about 5 hours, room temperature, read-out: Test Example 4 membrane permeation coefficient Pe
Protocol: A test solution (see below) was stirred while shaking at room temperature for about 5 hours using a 96-well PAMPA plate (BD Biosciences) in which a lipid had been precoated onto a polyvinylidene fluoride (PVDF) film to evaluate the membrane permeation coefficient Pe (cm/s) of each compound dissolved in the test solution (concentration: about 200 μM) upon the transport of the compound from a donor side to an acceptor side through a lipid membrane. The Pe value was calculated in accordance with equations 1 and 2, and the concentration of the compound on the donor side and the acceptor side was measured by a HPLC-UV method. In 0.3 mL of the test solution on the donor side is contained about 1% (v/v) of DMSO, since 3 μL of a DMSO solution containing the compound at a concentration of 20 mM was added to the test solution.
Test solution: a phosphate buffer solution having a pH value of 6.8 (90 mM of phosphate, 48 mM of NaCl, 5.4 mM of KCl)
Conditions for stirring: a multishaker MS-300 (AS ONE Corporation), 350 rpm
[formula] CD(t): compound concentration in donor well at time t CA(t): compound concentration in acceptor well at time t VD: donor well volume (0.3 mL) VA: acceptor well volume (0.2 mL) A: filter area (0.3 cm^2)

[5] = aqueous buffer, kinetic from dmso stock

IC50 [1] [µM]	Test Example 2 residual ratio of the test substance [2] [%]	solubility [3, 5] [µM]	Papp [4] [×10⁻⁶ cm/s]	solubility [3] [µM]	SMILES
0.21	60	195 (≈ 145 µg/mL)	0.89	–	C=CCN1CC(=O)N2[C@@H](Cc3c(F)cc(O)cc3F)C(=O)N(Cc3cccc(N4CC(N5CCN(C)C[C@@H]5C)C4)n3)C[C@@H]2N1C(=O)NCc1ccccc1 [Example 17, (6S,9aS)-N-Benzyl-6-((2,6-difluoro-4-hydroxyphenyl)methyl)-8-((6-(3-((2S)-2,4-dimethylpiperazin-1-yl)azetidin-1-yl)pyridin-2-yl)methyl)-4,7-dioxo-2-(prop-2-en-1-yl)-octahydro-1H-pyrazino[2,1-c][1,2,4]triazine-1-carboxamide]
0.32	37	–	1.13	200 (≈ 144 µg/mL)	C=CCN1CC(=O)N2[C@@H](Cc3ccc(O)cc3)C(=O)N(Cc3cccc(N4CC(N5CCN(CC)[C@@H](C)C5)C4)n3)C[C@@H]2N1C(=O)NCc1ccccc1 [Example 18, (6S,9aS)-N-Benzyl-8-((6-(3-((3S)-4-ethyl-3-methylpiperazin-1-yl)azetidin-1-yl)pyridin-2-yl)methyl)-6-((4-hydroxyphenyl)methyl)-4,7-dioxo-2-(prop-2-en-1-yl)-octahydro-1H-pyrazino[2,1-c][1,2,4]triazine-1-carboxamide]
0.23	30	–	0.91	200 (≈ 144 µg/mL)	C=CCN1CC(=O)N2C(CN(Cc3cccc(N4CC(N5CCN(CC)[C@H](C)C5)C4)n3)C(=O)[C@@H]2Cc2ccc(O)cc2)N1C(=O)NCc1ccccc1 (stereo partly drawn) [Example 19, (6S,9aS)-N-Benzyl-8-((6-3-((3R)-4-ethyl-3-methylpiperazin-1-yl)azetidin-1-yl)pyridin-2-yl)methyl-6-((4-hydroxyphenyl)methyl)-4,7-dioxo-2-(prop-2-en-1-yl)-octahydro-1H-pyrazino[2,1-c][1,2,4]triazine-1-carboxamide]
0.061	23	197 (≈ 146 µg/mL)	2.17	–	C=CCN1CC(=O)N2[C@@H](Cc3ccc(O)cc3F)C(=O)N(Cc3cccc(N4CC(N5CCN(CC)[C@@H](C)C5)C4)n3)C[C@@H]2N1C(=O)NCc1ccccc1 [Example 20, (6S,9aS)-N-Benzyl-8-((6-(3-((3S)-4-ethyl-3-methylpiperazin-1-yl)azetidin-1-yl)pyridin-2-yl)methyl)-6-((2-fluoro-4-hydroxyphenyl)methyl)-4,7-dioxo-2-(prop-2-en-1-yl)-octahydro-1H-pyrazino[2,1-c][1,2,4]triazine-1-carboxamide]
0.063	23	–	1.47	200 (≈ 148 µg/mL)	C=CCN1CC(=O)N2[C@@H](Cc3ccc(O)cc3F)C(=O)N(Cc3cccc(N4CC(N5CCN(CC)[C@H](C)C5)C4)n3)C[C@@H]2N1C(=O)NCc1ccccc1 [Example 21, (6S,9aS)-N-Benzyl-8-((6-(3-((3R)-4-ethyl-3-methylpiperazin-1-yl)azetidin-1-yl)pyridin-2-yl)methyl)-6-((2-fluoro-4-hydroxyphenyl)methyl)-4,7-dioxo-2-(prop-2-en-1-yl)-octahydro-1H-pyrazino[2,1-c][1,2,4]triazine-1-carboxamide]
0.18	43	–	0.57	200 (≈ 152 µg/mL)	C=CCN1CC(=O)N2[C@@H](Cc3c(F)cc(O)cc3F)C(=O)N(Cc3cccc(N4CC(N5CCN(CC)[C@@H](C)C5)C4)n3)C[C@@H]2N1C(=O)NCc1ccccc1 [Example 22, (6S,9aS)-N-Benzyl-6-((2,6-difluoro-4-hydroxyphenyl)methyl)-8-((6-(3-((3S)-4-ethyl-3-methylpiperazin-1-yl)azetidin-1-yl)pyridin-2-yl)methyl)-4,7-dioxo-2-(prop-2-en-1-yl)-octahydro-1H-pyrazino[2,1-c][1,2,4]triazine-1-carboxamide]
0.19	38	195 (≈ 148 µg/mL)	0.43	–	C=CCN1CC(=O)N2[C@@H](Cc3c(F)cc(O)cc3F)C(=O)N(Cc3cccc(N4CC(N5CCN(CC)[C@H](C)C5)C4)n3)C[C@@H]2N1C(=O)NCc1ccccc1 [Example 23, (6S,9aS)-N-Benzyl-6-((2,6-difluoro-4-hydroxyphenyl)methyl)-8-((6-(3-((3R)-4-ethyl-3-methylpiperazin-1-yl)azetidin-1-yl)pyridin-2-yl)methyl)-4,7-dioxo-2-(prop-2-en-1-yl)-octahydro-1H-pyrazino[2,1-c][1,2,4]triazine-1-carboxamide]
0.077	26	–	1.91	200 (≈ 145 µg/mL)	C=CCN1CC(=O)N2[C@@H](Cc3ccc(O)cc3)C(=O)N(Cc3ccc(F)c(N4CC(N5CCN(C)[C@H](C)C5)C4)n3)C[C@@H]2N1C(=O)NCc1ccccc1 [Example 24, (6S,9aS)-N-Benzyl-8-((6-(3-((3R)-3,4-dimethylpiperazin-1-yl)azetidine-1-yl)-5-fluoropyridin-2-yl)methyl)-6-((4-hydroxyphenyl)methyl)-4,7-dioxo-2-(prop-2-en-1-yl)-octahydro-1H-pyrazino[2,1-c][1,2,4]triazine-1-carboxamide]
